Patent US20250332167A1, “PHARMACEUTICAL USE OF CDK 4/6 INHIBITOR” (priority 2021, published 2025)
“Also recorded” adds a separate entry of the source.

Legend:
NCI-H1792 = assay: Proliferation inhibition, non-small cell lung cancer cell line NCI-H1792; assay type: cell-based; conditions: Homo sapiens, NCI-H1792, 72 h
Procedure: (§1) Sixteen non-small cell lung cancer cell lines, including NCI-H1792, NCI-H1703, NCI-H441, SNU-761, NCI-H1975, NCI-H358, NCI-H1838, NCI-H1915, A549, SK-MES-1, NCI-H292, PC-9, NCI-H460, NCI-H23, NCI-H1581, and HLF, were used for the proliferation inhibition assay of the present invention compound. […] The cell detection equipment used was In Cell Analyzer 2200 (GE Healthcare).
(§2) With 60 μM as the initial concentration, ten points were obtained by serial five-fold dilution.
(§3) Each kind of cell in logarithmic growth phase was inoculated with 4000 cells/100 μl/well into a black transparent bottom 96-well plate and cultured overnight at 37° C. The next day, the plate was taken out, and 20 μL of the prepared sample dilutions was added to each well. The plate was then subjected to treatment at 37° C. for 72 hours. After the treatment period of 72 hours, the plate was taken out and 50 μL of neutral formaldehyde fixative (formaldehyde: PBS=1:9, 50 μl/well) was added to each well. The plate was then fixed at room temperature for 10-30 minutes. Subsequently, the wells were washed twice with 1× PBS (100 μl/well) and treated with 0.2% Triton™-X100 for 5-10 minutes to permeabilize the cells. […] The inhibitory rates of each compound at different concentration points were calculated by using the following formula, and IC50 values were obtained through curve fitting using GraphPad Prism 6.0 software.

NCI-H1703 = assay: Proliferation inhibition, non-small cell lung cancer cell line NCI-H1703; assay type: cell-based; conditions: Homo sapiens, NCI-H1703, 72 h
Procedure: as §1, §2, §3

NCI-H441 = assay: Proliferation inhibition, non-small cell lung cancer cell line NCI-H441; assay type: cell-based; conditions: Homo sapiens, NCI-H441, 72 h
Procedure: as §1, §2, §3

SNU-761 = assay: Proliferation inhibition, non-small cell lung cancer cell line SNU-761; assay type: cell-based; conditions: Homo sapiens; SNU-761, 72 h
Procedure: as §1, §2, §3

NCI-H1975 = assay: Proliferation inhibition, non-small cell lung cancer cell line NCI-H1975; assay type: cell-based; conditions: Homo sapiens, NCI-H1975, 72 h
Procedure: as §1, §2, §3

NCI-H358 = assay: Proliferation inhibition, non-small cell lung cancer cell line NCI-H358; assay type: cell-based; conditions: Homo sapiens, NCI-H358, 72 h
Procedure: as §1, §2, §3

NCI-H1838 = assay: Proliferation inhibition, non-small cell lung cancer cell line NCI-H1838; assay type: cell-based; conditions: Homo sapiens, NCI-H1838, 72 h
Procedure: as §1, §2, §3

NCI-H1915 = assay: Proliferation inhibition, non-small cell lung cancer cell line NCI-H1915; assay type: cell-based; conditions: Homo sapiens, NCI-H1915, 72 h
Procedure: as §1, §2, §3

A549 = assay: Proliferation inhibition, non-small cell lung cancer cell line A549; assay type: cell-based; conditions: Homo sapiens, A549, 72 h
Procedure: as §1, §2, §3

SK-MES-1 = assay: Proliferation inhibition, non-small cell lung cancer cell line SK-MES-1; assay type: cell-based; conditions: Homo sapiens, SK-MES-1, 72 h
Procedure: as §1, §2, §3

NCI-H292 = assay: Proliferation inhibition, non-small cell lung cancer cell line NCI-H292; assay type: cell-based; conditions: Homo sapiens, NCI-H292, 72 h
Procedure: as §1, §2, §3

PC-9 = assay: Proliferation inhibition, non-small cell lung cancer cell line PC-9; assay type: cell-based; conditions: Homo sapiens, PC-9, 72 h
Procedure: as §1, §2, §3

NCI-H460 = assay: Proliferation inhibition, non-small cell lung cancer cell line NCI-H460; assay type: cell-based; conditions: Homo sapiens, NCI-H460, 72 h
Procedure: as §1, §2, §3

NCI-H23 = assay: Proliferation inhibition, non-small cell lung cancer cell line NCI-H23; assay type: cell-based; conditions: Homo sapiens, NCI-H23, 72 h
Procedure: as §1, §2, §3

NCI-H1581 = assay: Proliferation inhibition, non-small cell lung cancer cell line NCI-H1581; assay type: cell-based; conditions: Homo sapiens, NCI-H1581, 72 h
Procedure: as §1, §2, §3

HLF = assay: Proliferation inhibition, non-small cell lung cancer cell line HLF; assay type: cell-based; conditions: Homo sapiens, 72 h
Procedure: as §1, §2, §3

NCI-H2228 xenograft = assay: Human non-small cell lung cancer NCI-H2228 xenograft mouse model; assay type: in vivo, mice
From the text: The formula for calculating tumor volume was: Tumor Volume (mm^3)=½×(a×b^2) (where “a” represents the long diameter and “b” represents the short diameter).
The relative tumor growth rate (T/C) is the percentage value of the relative tumor volume or weight between the treatment group and the control group at a certain time point. The calculation formula is as follows: • T/C(%)=TRTV/CRTV×100% (TRTV: Average RTV of the treatment group; CRTV: Average RTV of the Vehicle group; RTV=Vt/V0, where V0 is the tumor volume of the animal at the time of grouping and Vt is the tumor volume of the animal after treatment).
(T and C are the relative tumor volume (RTV) or weight (TW) of the treatment group and control group at a specific time point, respectively).
Human non-small cell lung cancer cells NCI-H2228 were cultured in RPMI-1640 medium containing 10% fetal bovine serum. Log-phase NCI-H2228 cells were collected, suspended in PBS to an appropriate concentration, and mixed with extracellular matrix gel in a 1:1 ratio for subcutaneous tumor implantation in mice. Twenty female mice were subcutaneously implanted with NCI-H2228 cells on the right side. The cells were suspended in PBS and mixed evenly with matrix gel in a 1:1 ratio (0.1 ml per mouse). When the average tumor volume reached 143 mm^3, the mice were randomly divided into groups based on tumor size. The groups received either the solvent or Compound A from Example 1 (50 mg/kg), administrated by oral intragastric administration once a day for 28 days. Tumor volume and body weight changes were regularly observed. All animals were euthanized on day 50 after cell inoculation. The tumors were weighed and photographed. The calculation methods for tumor volume, relative tumor growth rate (T/C), and tumor growth inhibition rate (TGI) were shown in Example 3.

[1] = 50 mg/kg oral once a day for 28 days, day 50 post-implantation
[2] = 50 mg/kg oral once a day, treatment period

CC1=Nc2c(F)cc(-c3nc(Nc4ccc(C5CCN(C)CC5)cn4)ncc3F)cc2C12CCCC2.O=C(O)/C=C/C(=O)O [Compound A, Fumarate salt of 5-fluoro-4-(7′-fluoro-2′-methylspiro[cyclopentane-1,3′-indol]-5′-yl)-N-(5-(1-methylpiperidin-4-yl)pyridin-2-yl)pyrimidine-2-amine] showed an IC50 (NCI-H1792) of 3 nM, an IC50 (NCI-H1703) of 3 nM and an IC50 (NCI-H441) of 7 nM. It also gave an IC50 (SNU-761) of 8 nM, an IC50 (NCI-H1975) of 10 nM and an IC50 (NCI-H358) of 17 nM. It also gave an IC50 (NCI-H1838) of 47.9 nM, an IC50 (NCI-H1915) of 53 nM and an IC50 (A549) of 66 nM. For the same compound, the IC50 (SK-MES-1) was 67 nM, the IC50 (NCI-H292) was 73 nM and the IC50 (PC-9) was 180 nM. The IC50 (NCI-H460) was 235 nM, the IC50 (NCI-H23) was 243 nM and the IC50 (NCI-H1581) was 1120 nM. For the same compound, the IC50 (HLF) was 2010 nM, the T/C (NCI-H2228 xenograft; [1]) was 64% and the TGI (NCI-H2228 xenograft; [1]) was 36%. For the same compound, the “Tumor relative volume (x ± SEM)” value (NCI-H2228 xenograft; [1]) was 3.38 ± 0.23, the “Tumor volume (x ± SEM)” value (NCI-H2228 xenograft; [1]) was 506.53 mm^3 and the “Tumor volume (x ± SEM)” value (NCI-H2228 xenograft; 50 mg/kg oral once a day for 28 days, day 50 post-implantation, listed as CompoundA) was 506.53 ± 44.73 mm^3. The Body weight change (NCI-H2228 xenograft; [2]) was “slight weight loss” and the “Tolerability / adverse effects” value (NCI-H2228 xenograft; [2]) was “good tolerability; also recorded: no obvious adverse effects”.
